Measured values: article PMC8991199, “Promiscuity mapping of the S100 protein family using a high-throughput holdup assay” (Scientific Reports, 2022)

Tests used:
Type in all cases: binding
S100A15 = molecular target: T1, S100A15 (Homo sapiens, UniProt Q86SG5); test: direct fluorescence polarization (FP), S100A15; conditions: S100A15, 50 nM labeled foldamer, 20 mM HEPES pH 7.5, 150 mM NaCl, 1 mM CaCl2, 0.5 mM TCEP, 0.01% Tween20, quadratic fit, mean ± SEM, three technical repeats, threshold 1 mM
T1 sequence (Q86SG5 1-101): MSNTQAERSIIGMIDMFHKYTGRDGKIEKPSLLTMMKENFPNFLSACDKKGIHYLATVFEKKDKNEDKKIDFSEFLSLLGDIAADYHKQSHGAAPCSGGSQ
Method: (§1) HTP (and also low-throughput) measurements generally need to be validated by an orthogonal approach to eliminate experimental artifacts. […] This way, we chose WL, IF, WW, YF, IL, VL, TW, RF, RR, TI, TM, and after resynthesizing with a fluorescent label at the C-terminus (Figs. S15–S26, Table S1), the S100ome was tested against the labeled foldamers by direct fluorescence polarization (FP) (Fig. 3A). In this assay, the association of the fluorescently labeled foldamer and the S100 protein of interest is monitored, through the change in polarization of the emitted light by the fluorophore upon the binding event. In direct FP, the presence of the fluorophore might change the binding affinity of some foldamers. […] Nevertheless, we assumed that the fluorophore would affect all foldamers that target the same binding site to the same degree, because the foldamer scaffold is rigid. Defining the threshold of detection at the dissociation constant of 1 mM, we identified 87 interactions between the selected foldamer fragments and the S100ome out of 220 possible interactions (Table 1, Fig. S4-14).
(§2) Briefly, S100 proteins were cloned into a modified pET15b vector with a TEV protease cleavable N-terminal His6-tag and expressed in Escherichia coli BL21 (DE3) cells, followed by Ni^2+-affinity chromatography. For HU assay, S100 proteins were further purified by either hydrophobic interaction chromatography or ion exchange chromatography without the cleavage of the N-terminal His6-tag applying standard conditions. For direct FP measurements, the N-terminal His6-tag was cleaved, and the S100 proteins were purified by hydrophobic interaction chromatography, ion exchange chromatography or size exclusion chromatography. The quality of the recombinant proteins was checked by SDS-PAGE analysis in all cases. The concentration of the recombinant S100 proteins was determined by UV spectrophotometry using the absorbance of Tyr and Trp residues.
(§3) In direct fluorescence polarization assays, S100 proteins were diluted in a buffer containing 50 nM labeled foldamer, 20 mM HEPES pH 7.5, 150 mM NaCl, 1 mM CaCl2, 0.5 mM TCEP and 0.01% Tween20. The dilution series (50 µl) were divided into three technical repeats and transferred (15 µl) to a 384-well microplate. In competitive fluorescence polarization assays, the buffer applied in direct measurements was supplemented with the S100 protein of interest to reach a saturation of 60–80%. This mixture was titrated with the competitor (i.e. the unlabeled peptide). Fluorescence polarization was measured in 8 different S100 concentrations (one of which contained no S100 protein) on a Synergy H4 plate reader using 485 ± 20 nm and 528 ± 20 nm band-pass filters for excitation and emission, respectively. The Kd values were obtained by fitting the data from the FP measurements with the python-based ProFit software using quadratic and competitive binding equation for direct and competitive FP, respectively. The detection threshold was based on two parameters. First, we rejected all fitted dissociation constants above 1 mM.

S100A1 = molecular target: T2, S100A1 (Homo sapiens, UniProt P23297); test: direct fluorescence polarization (FP), S100A1; conditions: S100A1, 50 nM labeled foldamer, 20 mM HEPES pH 7.5, 150 mM NaCl, 1 mM CaCl2, 0.5 mM TCEP, 0.01% Tween20, quadratic fit, mean ± SEM, three technical repeats, threshold 1 mM
T2 sequence (P23297 1-94): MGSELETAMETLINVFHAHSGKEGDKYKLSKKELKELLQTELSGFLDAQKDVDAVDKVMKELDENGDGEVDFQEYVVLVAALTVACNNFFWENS
Text: (§4) HTP (and also low-throughput) measurements generally need to be validated by an orthogonal approach to eliminate experimental artifacts. […] In this assay, the association of the fluorescently labeled foldamer and the S100 protein of interest is monitored, through the change in polarization of the emitted light by the fluorophore upon the binding event. In direct FP, the presence of the fluorophore might change the binding affinity of some foldamers. […] Nevertheless, we assumed that the fluorophore would affect all foldamers that target the same binding site to the same degree, because the foldamer scaffold is rigid.
as §2, §3

S100Z = molecular target: T3, S100Z (Homo sapiens, UniProt Q8WXG8); test: direct fluorescence polarization (FP), S100Z; conditions: 50 nM labeled foldamer, 20 mM HEPES pH 7.5, 150 mM NaCl, 1 mM CaCl2, 0.5 mM TCEP, 0.01% Tween20, quadratic fit, mean ± SEM, three technical repeats, threshold 1 mM
T3 sequence (Q8WXG8 1-99): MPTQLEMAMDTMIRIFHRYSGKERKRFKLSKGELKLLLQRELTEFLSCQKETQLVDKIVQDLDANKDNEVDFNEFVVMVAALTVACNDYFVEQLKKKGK
Text: as §4, §2, §3

S100A9 = molecular target: T4, S100A9 (Homo sapiens, UniProt P06702); test: direct fluorescence polarization (FP), S100A9; conditions: S100A9, 50 nM labeled foldamer, 20 mM HEPES pH 7.5, 150 mM NaCl, 1 mM CaCl2, 0.5 mM TCEP, 0.01% Tween20, quadratic fit, mean ± SEM, three technical repeats, threshold 1 mM
T4 sequence (P06702 1-114): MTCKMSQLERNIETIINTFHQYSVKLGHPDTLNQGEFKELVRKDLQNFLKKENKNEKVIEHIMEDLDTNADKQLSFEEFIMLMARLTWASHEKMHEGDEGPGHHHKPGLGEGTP
Method: as §1, §2, §3

S100B = molecular target: T5, S100B (Homo sapiens, UniProt P04271); test: direct fluorescence polarization (FP), S100B; conditions: 50 nM labeled foldamer, 20 mM HEPES pH 7.5, 150 mM NaCl, 1 mM CaCl2, 0.5 mM TCEP, 0.01% Tween20, quadratic fit, mean ± SEM, three technical repeats, threshold 1 mM
T5 sequence (P04271 1-92): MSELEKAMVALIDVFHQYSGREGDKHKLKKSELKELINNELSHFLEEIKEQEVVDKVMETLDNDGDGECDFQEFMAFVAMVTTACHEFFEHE
Method: as §1, §2, §3

S100A14 = molecular target: T6, S100A14 (Homo sapiens, UniProt Q9HCY8); test: direct fluorescence polarization (FP), S100A14; conditions: S100A14, 50 nM labeled foldamer, 20 mM HEPES pH 7.5, 150 mM NaCl, 1 mM CaCl2, 0.5 mM TCEP, 0.01% Tween20, quadratic fit, mean ± SEM, three technical repeats, threshold 1 mM
T6 sequence (Q9HCY8 1-104): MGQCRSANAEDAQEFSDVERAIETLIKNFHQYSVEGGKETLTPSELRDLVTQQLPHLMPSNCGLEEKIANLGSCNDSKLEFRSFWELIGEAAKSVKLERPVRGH
Method: as §1, §2, §3

SMILES	Kd (S100A15) [µM]	Kd (S100A1) [µM]	Kd (S100Z) [µM]	Kd (S100A9) [µM]	Kd (S100B) [µM]	Kd (S100A14) [µM]
CC[C@H](C)[C@@H](CC(=O)N[C@H]1CCCC[C@@H]1C(=O)N[C@H]1CCCC[C@@H]1C(=O)N[C@H](CC(=O)N[C@H]1CCCC[C@@H]1C(=O)NCC(=O)N[C@@H](CCCCNC(=O)c1ccc2c(c1)C1(OC2=O)c2ccc(O)cc2Oc2cc(O)ccc21)C(N)=O)Cc1ccccc1)NC(=O)[C@H]1CCCC[C@@H]1N [fIF]	> 1000	210 ± 13	480 ± 31	> 1000	140 ± 7.9	> 1000
CC[C@H](C)[C@@H](CC(=O)N[C@H]1CCCC[C@@H]1C(=O)N[C@H]1CCCC[C@@H]1C(=O)N[C@H](CC(=O)N[C@H]1CCCC[C@@H]1C(=O)NCC(=O)N[C@@H](CCCCNC(=O)c1ccc2c(c1)C1(OC2=O)c2ccc(O)cc2Oc2cc(O)ccc21)C(N)=O)CC(C)C)NC(=O)[C@H]1CCCC[C@@H]1N [fIL]	> 1000	–	> 1000	> 1000	63 ± 4.4	> 1000
N=C(N)NCCC[C@@H](CC(=O)N[C@H]1CCCC[C@@H]1C(=O)N[C@H]1CCCC[C@@H]1C(=O)N[C@H](CC(=O)N[C@H]1CCCC[C@@H]1C(=O)NCC(=O)N[C@@H](CCCCNC(=O)c1ccc2c(c1)C1(OC2=O)c2ccc(O)cc2Oc2cc(O)ccc21)C(N)=O)Cc1ccccc1)NC(=O)[C@H]1CCCC[C@@H]1N [fRF]	> 1000	413 ± 81	890 ± 120	> 1000	230 ± 5.9	> 1000
N=C(N)NCCC[C@@H](CC(=O)N[C@H]1CCCC[C@@H]1C(=O)NCC(=O)N[C@@H](CCCCNC(=O)c1ccc2c(c1)C1(OC2=O)c2ccc(O)cc2Oc2cc(O)ccc21)C(N)=O)NC(=O)[C@H]1CCCC[C@@H]1NC(=O)[C@H]1CCCC[C@@H]1NC(=O)C[C@H](CCCNC(=N)N)NC(=O)[C@H]1CCCC[C@@H]1N [fRR]	> 1000	280 ± 38	> 1000	> 1000	210 ± 26	> 1000
CC[C@H](C)[C@@H](CC(=O)N[C@H]1CCCC[C@@H]1C(=O)NCC(=O)N[C@@H](CCCCNC(=O)c1ccc2c(c1)C1(OC2=O)c2ccc(O)cc2Oc2cc(O)ccc21)C(N)=O)NC(=O)[C@H]1CCCC[C@@H]1NC(=O)[C@H]1CCCC[C@@H]1NC(=O)C[C@@H](NC(=O)[C@H]1CCCC[C@@H]1N)[C@@H](C)O [fTI]	> 1000	> 1000	> 1000	> 1000	> 1000	> 1000
CSCC[C@@H](CC(=O)N[C@H]1CCCC[C@@H]1C(=O)NCC(=O)N[C@@H](CCCCNC(=O)c1ccc2c(c1)C1(OC2=O)c2ccc(O)cc2Oc2cc(O)ccc21)C(N)=O)NC(=O)[C@H]1CCCC[C@@H]1NC(=O)[C@H]1CCCC[C@@H]1NC(=O)C[C@@H](NC(=O)[C@H]1CCCC[C@@H]1N)[C@@H](C)O [fTM]	> 1000	> 1000	> 1000	> 1000	> 1000	> 1000
C[C@@H](O)[C@@H](CC(=O)N[C@H]1CCCC[C@@H]1C(=O)N[C@H]1CCCC[C@@H]1C(=O)N[C@H](CC(=O)N[C@H]1CCCC[C@@H]1C(=O)NCC(=O)N[C@@H](CCCCNC(=O)c1ccc2c(c1)C1(OC2=O)c2ccc(O)cc2Oc2cc(O)ccc21)C(N)=O)Cc1c[nH]c2ccccc12)NC(=O)[C@H]1CCCC[C@@H]1N [fTW]	> 1000	330 ± 20	–	> 1000	280 ± 17	> 1000
CC(C)C[C@@H](CC(=O)N[C@H]1CCCC[C@@H]1C(=O)NCC(=O)N[C@@H](CCCCNC(=O)c1ccc2c(c1)C1(OC2=O)c2ccc(O)cc2Oc2cc(O)ccc21)C(N)=O)NC(=O)[C@H]1CCCC[C@@H]1NC(=O)[C@H]1CCCC[C@@H]1NC(=O)C[C@@H](NC(=O)[C@H]1CCCC[C@@H]1N)C(C)C [fVL]	> 1000	97 ± 12	> 1000	> 1000	50 ± 6.4	> 1000
CC(C)C[C@@H](CC(=O)N[C@H]1CCCC[C@@H]1C(=O)NCC(=O)N[C@@H](CCCCNC(=O)c1ccc2c(c1)C1(OC2=O)c2ccc(O)cc2Oc2cc(O)ccc21)C(N)=O)NC(=O)[C@H]1CCCC[C@@H]1NC(=O)[C@H]1CCCC[C@@H]1NC(=O)C[C@H](Cc1c[nH]c2ccccc12)NC(=O)[C@H]1CCCC[C@@H]1N [fWL]	39 ± 2.4	53 ± 5.2	> 1000	> 1000	11 ± 0.81	> 1000
NC(=O)[C@H](CCCCNC(=O)c1ccc2c(c1)C1(OC2=O)c2ccc(O)cc2Oc2cc(O)ccc21)NC(=O)CNC(=O)[C@H]1CCCC[C@@H]1NC(=O)C[C@H](Cc1c[nH]c2ccccc12)NC(=O)[C@H]1CCCC[C@@H]1NC(=O)[C@H]1CCCC[C@@H]1NC(=O)C[C@H](Cc1c[nH]c2ccccc12)NC(=O)[C@H]1CCCC[C@@H]1N [fWW]	> 1000	110 ± 19	> 1000	> 1000	> 1000	> 1000
NC(=O)[C@H](CCCCNC(=O)c1ccc2c(c1)C1(OC2=O)c2ccc(O)cc2Oc2cc(O)ccc21)NC(=O)CNC(=O)[C@H]1CCCC[C@@H]1NC(=O)C[C@H](Cc1ccccc1)NC(=O)[C@H]1CCCC[C@@H]1NC(=O)[C@H]1CCCC[C@@H]1NC(=O)C[C@H](Cc1ccc(O)cc1)NC(=O)[C@H]1CCCC[C@@H]1N [fYF]	> 1000	110 ± 9.8	> 1000	> 1000	28 ± 1.7	> 1000
